Experiment [1] deals with T1, hOT7T175 (Homo sapiens, UniProt Q969F8, L364H). Briefly: Intracellular Ca ion level-increasing activity using FLIPR in hOT7T175/CHO. Format: cell-based. Further details: expressed in transfected cells; host or cells: CHO/dhfr- cells, obtained from ATCC. As to conditions: relative, Metastin (1-54) = 1.
Experiment [2] deals with T1, hOT7T175. Briefly: hOT7T175 receptor binding activity: binding inhibition of Cy-5-labeled metastin (40-54) on hOT7T175-expressed CHO cells. Further details: expressed in transfected cells; host or cells: CHO cells. As for the experimental part:
Assay for hOT7T175 Receptor Binding Activity
h0T7T175-Expressed CHO cells were cultured in MEM-cc medium (nucleic acid-free) containing 10% dialyzed serum. The medium was removed and the adherent cells were washed with PBS. Then, PBS containing 5 mM EDTA was added and the cells were scraped from a flask with a cell scraper. […] To each well of a 96-Well Black Clear Bottom Plate (Applied Biosystems, Inc.), 10 μL of assay buffer containing 1% dimethylsulfoxide was added to examine total binding, 10 μL of 10 μM non-labeled peptide (having the same amino acid sequence as that of the labeled one) solution diluted with assay buffer to examine non-specific binding, and 10 μL of a test compound diluted with assay buffer to examine the binding inhibition activity of the test compound, respectively. Furthermore, 90 μL each of the cell suspension was dispensed to each well. […] The specific binding is a value obtained by subtracting the non-specific binding from the total binding.

SMILES strings stand for the structures. Square brackets hold non-standard residues; d marks the D form. Peptide text beside a SMILES is read from it. * marks the point of attachment. Propanoyl(3-indol-3-yl) = O=C(CCc1c[nH]c2ccccc12)*; 1Nal = N[C@@H](Cc1cccc2ccccc12)C(=O)O; Cha = N[C@@H](CC1CCCCC1)C(=O)O; X3 = NC(=S)[C@H](Cc1ccccc1)N*

T1 sequence (Q969F8 whole entry L364H): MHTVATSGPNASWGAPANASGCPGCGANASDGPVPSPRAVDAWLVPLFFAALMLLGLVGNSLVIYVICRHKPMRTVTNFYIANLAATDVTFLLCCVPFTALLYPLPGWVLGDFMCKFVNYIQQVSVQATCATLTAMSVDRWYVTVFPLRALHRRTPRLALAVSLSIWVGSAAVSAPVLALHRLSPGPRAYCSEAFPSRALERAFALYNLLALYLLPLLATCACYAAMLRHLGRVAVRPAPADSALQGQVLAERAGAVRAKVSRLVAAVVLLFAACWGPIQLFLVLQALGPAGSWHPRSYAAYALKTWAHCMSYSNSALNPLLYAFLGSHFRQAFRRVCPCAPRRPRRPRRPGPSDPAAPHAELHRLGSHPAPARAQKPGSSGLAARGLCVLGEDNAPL

Take `COc1ccc(C[C@H](NC(=O)[C@H](CCCNC(=N)N)NC(=O)[C@H](CC(C)C)NC(=O)CNC(=O)[C@H](Cc2ccccc2)NC(=O)[C@H](CO)NC(=O)[C@H](CC(N)=O)NC(=O)[C@H](Cc2c[nH]c3ccccc23)NC(=O)[C@H](CC(N)=O)NC(=O)[C@@H](N)Cc2ccc(O)cc2)C(N)=O)cc1` [Compound No. 18] (H-YNWNSFGLRY(Me)-NH2): at hOT7T175 [1], the “Specific Activity (intracellular Ca ion level-increasing activity)” value is listed as 1. At hOT7T175 [2], this compound had an IC50 of 7.7 nM.

In the case of `CC(C)C[C@H](NC(=O)CNC(=O)[C@H](Cc1ccccc1)NC(=O)[C@H](CO)NC(=O)[C@H](CC(N)=O)NC(=O)[C@H](Cc1c[nH]c2ccccc12)NC(=O)[C@H](CC(N)=O)NC(=O)[C@H](Cc1ccc(O)cc1)NC(=O)[C@H](CC(N)=O)NC(=O)[C@@H]1CCCN1C(=O)[C@@H](N)CC(C)C)C(=O)N[C@@H](CCCNC(=N)N)C(=O)N[C@@H](Cc1ccccc1)C(N)=O` [Compound No. 32, reference compound], the “Specific Activity (intracellular Ca ion level-increasing activity)” value at hOT7T175 [1] turned out to be 10. In addition, on hOT7T175 [2], the IC50 turned out to be 25 nM.

`CC(C)C[C@H](NC(=O)[C@H](C)NC(=O)[C@H](Cc1ccccc1)NC(=O)[C@H](CO)NC(=O)[C@H](CC(N)=O)NC(=O)[C@H](Cc1c[nH]c2ccccc12)NC(=O)[C@H](CC(N)=O)NC(=O)[C@@H](N)Cc1ccc(O)cc1)C(=O)N[C@@H](CCCNC(=N)N)C(=O)N[C@@H](Cc1ccccc1)C(N)=O` [Compound No. 50] (H-YNWNSFALRF-NH2): the “Specific Activity (intracellular Ca ion level-increasing activity)” value at hOT7T175 [1] was 30. Also, the IC50 at hOT7T175 [2] amounted to 190 nM.

With `CC(C)C[C@H](NC(=O)CNC(=O)[C@H](Cc1ccccc1)NC(=O)[C@H](CO)NC(=O)[C@H](CC(N)=O)NC(=O)[C@H](Cc1c[nH]c2ccccc12)NC(=O)[C@H](CC(N)=O)NC(=O)[C@@H](N)CC(=O)O)C(=O)N[C@@H](CCCNC(=N)N)C(=O)N[C@@H](Cc1ccccc1)C(N)=O` [Compound No. 75] (H-DNWNSFGLRF-NH2), the “Specific Activity (intracellular Ca ion level-increasing activity)” value on hOT7T175 [1] was 1. Moreover, the 50% inhibitory concentration (IC50) on hOT7T175 [2] stood at 880 nM.

In the case of `CC(C)C[C@H](NC(=O)CNC(=O)[C@H](Cc1ccccc1)NC(=O)[C@H](CO)NC(=O)[C@H](CC(N)=O)NC(=O)[C@H](Cc1cn(C=O)c2ccccc12)NC(=O)[C@H](CC(N)=O)NC(=O)[C@@H](N)Cc1ccc(O)cc1)C(=O)N[C@@H](CCCNC(=N)N)C(=O)N[C@@H](Cc1ccc(C#N)cc1)C(N)=O` [Compound No. 78, Tyr-Asn-Trp(For)-Asn-Ser-Phe-Gly-Leu-Arg-Phe(4CN)-NH2], at hOT7T175 [1], the “Specific Activity (intracellular Ca ion level-increasing activity)” value stood at 10. This compound also displayed a half-maximal inhibitory concentration (IC50) at hOT7T175 [2] of 25 nM.

`CC(C)C[C@H](NC(=O)CNC(=O)[C@H](Cc1ccccc1)NC(=O)[C@H](CO)NC(=O)[C@H](CC(N)=O)NC(=O)[C@H](Cc1c[nH]c2ccccc12)NC(=O)[C@H](CC(N)=O)NC(=O)[C@@H](N)Cc1ccc(O)cc1)C(=O)N[C@@H](CCCCNC(=N)N)C(=O)N[C@@H](Cc1ccccc1)C(N)=O` [Compound No. 97]: on hOT7T175 [1], the “Specific Activity (intracellular Ca ion level-increasing activity)” value amounted to 10. The same compound had an IC50 on hOT7T175 [2] of 370 nM.

Take `CC(C)C[C@H](NC(=O)[C@H](CO)NC(=O)[C@H](Cc1ccccc1)NC(=O)[C@H](CO)NC(=O)[C@H](CC(N)=O)NC(=O)[C@H](Cc1c[nH]c2ccccc12)NC(=O)[C@H](CC(N)=O)NC(=O)[C@@H](N)Cc1ccc(O)cc1)C(=O)N[C@@H](CCCNC(=N)N)C(=O)N[C@@H](Cc1ccccc1)C(N)=O` [Compound No. 101] (H-YNWNSFSLRF-NH2): the “Specific Activity (intracellular Ca ion level-increasing activity)” value at hOT7T175 [1] is listed as 10. At hOT7T175 [2], this compound came in with an IC50 of 100 nM.

For the compound `CCCC[C@H](NC(=O)CNC(=O)[C@H](Cc1ccccc1)NC(=O)[C@H](CO)NC(=O)[C@H](CC(N)=O)NC(=O)[C@H](Cc1c[nH]c2ccccc12)NC(=O)[C@H](CC(N)=O)NC(=O)[C@@H](N)Cc1ccc(O)cc1)C(=O)N[C@@H](CCCNC(=N)N)C(=O)N[C@@H](Cc1ccccc1)C(N)=O` [Compound No. 105, Tyr-Asn-Trp-Asn-Ser-Phe-Gly-Nle-Arg-Phe-NH2], the “Specific Activity (intracellular Ca ion level-increasing activity)” value at hOT7T175 [1] worked out at 1. The compound also gave an IC50 on hOT7T175 [2] of 880 nM.

Turning to `CC(C)C[C@H](NC(=O)CNC(=O)[C@H](Cc1ccccc1)NC(=O)[C@H](CO)NC(=O)[C@H](CC(N)=O)NC(=O)[C@H](Cc1c[nH]c2ccccc12)NC(=O)[C@H](CC(N)=O)NC(=O)[C@@H](N)Cc1ccc(O)cc1)C(=O)N[C@@H](CCCNC(=N)N)C(=O)N[C@@H](Cc1ccc(O)cc1)C(N)=O` [Compound No. 109] (H-YNWNSFGLRY-NH2), the “Specific Activity (intracellular Ca ion level-increasing activity)” value at hOT7T175 [1] was determined as 20. Besides, the IC50 on hOT7T175 [2] was 23 nM.

Turning to `CC(C)C[C@H](NC(=O)CNC(=O)[C@H](Cc1ccccc1)NC(=O)[C@H](CO)NC(=O)[C@H](CC(N)=O)NC(=O)[C@H](Cc1c[nH]c2ccccc12)NC(=O)[C@H](CC(N)=O)NC(=O)[C@@H](N)Cc1ccc(O)cc1)C(=O)N[C@@H](CCCNC(=N)N)C(=O)N[C@@H](Cc1c(F)c(F)c(F)c(F)c1F)C(N)=O` [Compound No. 111], the “Specific Activity (intracellular Ca ion level-increasing activity)” value on hOT7T175 [1] is listed as 3. Besides, the half-inhibitory concentration (IC50) on hOT7T175 [2] was determined as 140 nM.

Take `CC(C)C[C@H](NC(=O)CNC(=O)[C@H](Cc1ccccc1)NC(=O)[C@H](CO)NC(=O)[C@H](CC(N)=O)NC(=O)[C@H](Cc1c[nH]c2ccccc12)NC(=O)[C@H](CC(N)=O)NC(=O)[C@@H](N)Cc1ccc(O)cc1)C(=O)N[C@@H](CCCNC(=N)N)C(=O)N[C@@H](CC1CCCCC1)C(N)=O` [Compound No. 112] (H-YNWNSFGLR[Cha]-NH2): the “Specific Activity (intracellular Ca ion level-increasing activity)” value at hOT7T175 [1] is given as 2. At hOT7T175 [2], this compound gave an IC50 of 370 nM.

As for `CC(C)C[C@H](NC(=O)CNC(=O)[C@H](Cc1ccccc1)NC(=O)[C@H](CO)NC(=O)[C@H](CC(N)=O)NC(=O)CCc1c[nH]c2ccccc12)C(=O)N[C@@H](CCCNC(=N)N)C(=O)N[C@@H](Cc1ccccc1)C(N)=O` [Compound No. 114, 3-(3-Indolyl)propionyl-Asn-Ser-Phe-Gly-Leu-Arg-Phe-NH2] ({Propanoyl(3-indol-3-yl)}-NSFGLRF-NH2), the “Specific Activity (intracellular Ca ion level-increasing activity)” value on hOT7T175 [1] is listed as 3. The same compound registered a half-maximal inhibitory concentration (IC50) at hOT7T175 [2] of 550 nM.

As to `CC(C)C[C@H](NC(=O)CNC(=O)[C@H](Cc1ccccc1)NC(=O)[C@H](CO)NC(=O)[C@H](CC(N)=O)NC(=O)[C@H](Cc1c[nH]c2ccccc12)NC(=O)[C@H](CC(N)=O)NC(=O)[C@@H](N)Cc1ccc(O)cc1)C(=O)N[C@@H](CCCNC(=N)N)C(=O)N[C@@H](Cc1ccc(Cl)cc1)C(N)=O` [Compound No. 130], the “Specific Activity (intracellular Ca ion level-increasing activity)” value at hOT7T175 [1] worked out at 10. This compound also registered an IC50 on hOT7T175 [2] of 42 nM.

With `CC(C)C[C@H](NC(=O)CNC(=O)[C@H](Cc1ccccc1)NC(=O)[C@H](CO)NC(=O)[C@H](CC(N)=O)NC(=O)[C@H](Cc1c[nH]c2ccccc12)NC(=O)[C@H](CC(N)=O)NC(=O)[C@@H](N)Cc1ccc(O)cc1)C(=O)N[C@@H](CCCNC(=N)N)C(=O)N[C@@H](Cc1ccc(N)cc1)C(N)=O` [Compound No. 131], the “Specific Activity (intracellular Ca ion level-increasing activity)” value at hOT7T175 [1] came to 3. Besides, on hOT7T175 [2], the IC50 is 120 nM.

For the compound `CC(C)C[C@H](NC(=O)CNC(=O)[C@H](Cc1ccccc1)NC(=O)[C@H](CO)NC(=O)[C@H](CC(N)=O)NC(=O)[C@H](Cc1c[nH]c2ccccc12)NC(=O)[C@H](CC(N)=O)NC(=O)[C@@H](N)Cc1ccc(O)cc1)C(=O)N[C@@H](CCCNC(=N)N)C(=O)N[C@@H](Cc1cccc2ccccc12)C(N)=O` [Compound No. 133] (H-YNWNSFGLR[1Nal]-NH2), the “Specific Activity (intracellular Ca ion level-increasing activity)” value at hOT7T175 [1] is 3. The same compound had an IC50 at hOT7T175 [2] of 330 nM.

Regarding `CNC(=N)NCCC[C@H](NC(=O)[C@H](CC(C)C)NC(=O)CNC(=O)[C@H](Cc1ccccc1)NC(=O)[C@H](CO)NC(=O)[C@H](CC(N)=O)NC(=O)[C@@H](Cc1c[nH]c2ccccc12)NC(=O)[C@H](CC(N)=O)NC(=O)[C@H](N)Cc1ccc(O)cc1)C(=O)N[C@@H](Cc1ccccc1)C(N)=O` [Compound No. 142, D-Tyr-Asn-D-Trp-Asn-Ser-Phe-Gly-Leu-Arg(Me)-Phe-NH2], the “Specific Activity (intracellular Ca ion level-increasing activity)” value on hOT7T175 [1] is recorded as 2. Also, the IC50 on hOT7T175 [2] was 26 nM.

On to `CNC(=N)NCCC[C@H](NC(=O)[C@H](CC(C)C)NC(=O)CNC(=O)[C@H](Cc1ccccc1)NC(=O)[C@H](CO)NC(=O)[C@H](CC(N)=O)NC(=O)[C@@H](Cc1c[nH]c2ccccc12)NC(=O)[C@H](CC(N)=O)NC(=O)[C@@H](N)Cc1ccc(O)cc1)C(=O)N[C@@H](Cc1ccccc1)C(N)=O` [Compound No. 143, Tyr-Asn-D-Trp-Asn-Ser-Phe-Gly-Leu-Arg(Me)-Phe-NH2], for which the “Specific Activity (intracellular Ca ion level-increasing activity)” value on hOT7T175 [1] is recorded as 3. The IC50 at hOT7T175 [2] turned out to be 7.7 nM.

On to `CC(C)C[C@H](NC(=O)CNC(=O)[C@H](Cc1ccccc1)NC(=O)[C@H](CO)NC(=O)[C@H](CC(N)=O)NC(=O)[C@H](Cc1c[nH]c2ccccc12)NC(=O)[C@H](CC(N)=O)NC(=O)[C@H](N)Cc1ccc(O)cc1)C(=O)N[C@@H](CCCNC(=N)N)C(=O)N[C@@H](Cc1ccccc1)C(N)=S` [Compound No. 146] (H-[dY]NWNSFGLR-X3), for which the “Specific Activity (intracellular Ca ion level-increasing activity)” value at hOT7T175 [1] came out at 10. Also, the IC50 at hOT7T175 [2] was 370 nM.

`CC(C)C[C@H](NC(=O)CNC(=O)[C@H](Cc1cccc2ccccc12)NC(=O)[C@H](CO)NC(=O)[C@H](CC(N)=O)NC(=O)[C@H](Cc1c[nH]c2ccccc12)NC(=O)[C@H](CC(N)=O)NC(=O)[C@@H](N)Cc1ccc(O)cc1)C(=O)N[C@@H](CCCNC(=N)N)C(=O)N[C@@H](Cc1ccccc1)C(N)=O` [Compound No. 151, Tyr-Asn-Trp-Asn-Ser-Nal(1)-Gly-Leu-Arg-Phe-NH2] (H-YNWNS[1Nal]GLRF-NH2; N-terminus assumed): on hOT7T175 [1], the “Specific Activity (intracellular Ca ion level-increasing activity)” value was found to be 1. This compound also came in with an IC50 at hOT7T175 [2] of 300 nM.

For orientation: IC50 means the concentration that inhibits the measured activity by half. The low end stands for inhibition by little substance, the high end for a need for much substance.

The record behind these values is patent publication US8361968B2 (Takeda Pharmaceutical Company Limited, priority 2002, dated 2013).
